According to paper PMC9501377, “New Diarylamine KV10.1 Inhibitors and Their Anticancer Potential” (Pharmaceutics, 2022):

Key:
[1] = molecular target: T1, KV10.1 (Eag1) (Homo sapiens, UniProt O95259); experiment: Whole-cell patch-clamp on stably transfected HEK-293 cells expressing KV10.1; type: cell-based; conditions: for IC50: whole-cell patch-clamp, dose–response fit
T1 construct: expressed in transfected cells; host or cells: HEK-293 (stably transfected)
T1 sequence (O95259 1-962 isoform O95259-2): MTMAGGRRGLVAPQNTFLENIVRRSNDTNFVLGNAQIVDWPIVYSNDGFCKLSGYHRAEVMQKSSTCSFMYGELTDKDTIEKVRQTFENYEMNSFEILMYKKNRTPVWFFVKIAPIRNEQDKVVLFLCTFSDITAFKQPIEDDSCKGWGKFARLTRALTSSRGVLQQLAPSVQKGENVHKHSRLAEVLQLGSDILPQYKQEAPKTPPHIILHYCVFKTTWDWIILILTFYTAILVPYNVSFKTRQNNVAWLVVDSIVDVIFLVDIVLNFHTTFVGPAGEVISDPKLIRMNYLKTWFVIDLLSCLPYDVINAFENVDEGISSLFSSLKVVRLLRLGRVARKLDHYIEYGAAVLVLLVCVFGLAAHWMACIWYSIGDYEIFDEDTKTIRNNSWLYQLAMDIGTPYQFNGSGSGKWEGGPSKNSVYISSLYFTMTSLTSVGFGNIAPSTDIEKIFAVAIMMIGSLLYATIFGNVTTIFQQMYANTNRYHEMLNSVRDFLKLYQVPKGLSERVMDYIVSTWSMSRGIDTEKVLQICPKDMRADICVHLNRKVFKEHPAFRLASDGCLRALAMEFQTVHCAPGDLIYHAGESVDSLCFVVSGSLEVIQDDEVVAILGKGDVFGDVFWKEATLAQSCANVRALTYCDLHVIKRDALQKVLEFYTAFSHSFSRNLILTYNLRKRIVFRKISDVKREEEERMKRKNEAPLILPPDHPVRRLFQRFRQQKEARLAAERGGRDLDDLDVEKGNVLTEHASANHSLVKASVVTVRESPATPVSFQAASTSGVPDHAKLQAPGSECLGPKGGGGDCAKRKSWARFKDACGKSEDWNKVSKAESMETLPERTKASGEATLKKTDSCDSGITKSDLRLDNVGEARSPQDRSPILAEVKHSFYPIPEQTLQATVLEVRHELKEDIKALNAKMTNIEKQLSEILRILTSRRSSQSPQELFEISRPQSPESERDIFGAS
Method: For whole-cell patch-clamp measurements, stably transfected HEK-293 cells expressing KV10.1 [26, 27, 28] were grown in DMEM with 10% FCS and 300 µg/mL Zeocin on glass coverslips coated with fibronectin. All experiments were conducted at room temperature under perfusion by gravity with extracellular solution (160 mM NaCl, 2.5 mM KCl, 2 mM CaCl2, 1 mM MgCl2, 10 mM Hepes pH 7.4 with NaOH, 8 mM glucose). Pipettes were made from #1 glass capillaries (WPI) and had 1–3 MΩ resistance. The intracellular solution contained 100 mM KCl, 45 mM N-methyl-D-glucamine, 10 mM 1,2-bis(o-aminophenoxy)ethane-N,N,N′,N′-tetraacetic acid (BAPTA), 10 mM Hepes pH 7.35. Stimulation was applied and data were acquired with an EPC10 Plus amplifier (HEKA Elektronik) controlled with Patch Master software. Compounds were applied with an 8-channel fast solution exchanger (ALA). Compounds were prepared to a stock concentration of 10 mM in DMSO. The control solution contained 0.5% DMSO. Stimuli consisted of 500 ms depolarizations to +40 mV.
All electrophysiological data are presented as means ± SEM of n ≥ 3 independent experiments unless otherwise indicated. Oocyte data were analysed using pClamp Clampfit 10.4 (Molecular Devices, Downingtown, PA, USA) and OriginPro 9 (Originlab, Northampton, MA, USA) or GraphPad Prism 8 software (GraphPad Software, Inc., San Diego, CA, USA). Patch-clamp data analysis was performed using FitMaster (HEKA Electronics), IgorPro (Wavemetrics, Inc., Lake Oswego, OR, USA) and GraphPad Prism 9 (GraphPad Software, Inc., San Diego, CA, USA). The Dunnett test and one-way ANOVA were performed to calculate the significance of the induced inhibition compared to the control (p < 0.05).

[2] = test system: MCF-7 breast cancer cell line; experiment: MTS antiproliferative assay; type: cell-based; conditions: Homo sapiens, MCF7, 72 h
Method: The antiproliferative activities of the compounds were evaluated on the breast cancer cell line MCF-7 (ATCC HTB-22, adherent cells isolated from a person), using an MTS (Promega, Madison, WI, USA) assay according to the manufacturer’s instructions. The MCF-7 cell line was obtained from the American Type Culture Collection (ATCC, Manassas, VA, USA). Cells were cultured in low-glucose Dulbecco’s Modified Eagle’s Medium (DMEM) (Sigma-Aldrich, St. Louis, MO, USA), supplemented with 10% fetal bovine serum (Gibco, Thermo Fisher Scientific, Waltham, MA, USA), 100 U/mL penicillin (Sigma-Aldrich, St. Louis, MO, USA), 100 µg/mL streptomycin (Sigma-Aldrich, St. Louis, MO, USA), and 2 mM L-glutamine (Sigma-Aldrich, St. Louis, MO, USA). The cell line was incubated in a 5% CO2 atmosphere at 37 °C. Cells were plated out in 96-well plates at a density of 2000 cells per well and incubated overnight. The next day, cells were treated with the indicated compounds, positive control (17-DMAG), or vehicle control (0.5% DMSO) and incubated for 72 h. […] Absorbance was measured at 492 nm using a microplate reader (Synergy 4 Hybrid; BioTek, Winooski, VT, USA). […] Statistical significance (p < 0.05) was calculated using a two-tailed Welch’s t-test between treated groups and DMSO. IC50 values are given as averages of the independent measurements and were calculated using GraphPad Prism 8.0 software (San Diego, CA, USA). […]

[3] = test system: Panc-1 cells; experiment: Cell growth by Incucyte confluence, Panc-1; type: cell-based, human; conditions: 48–72 h; for reduction of proliferation of Panc-1 cells: 25 µM
Method: MCF-7 (DSMZ ACC 115) and PANC-1 (DSMZ ACC 783) cells were grown as recommended by the cell supplier at 5% CO2 and 37 °C in a humidified atmosphere. For determining cell growth, cells were seeded in 96-well culture plates (Corning, Corning, NY, USA) at a density of 10^4 cells/well. After 24 h, the compounds were added diluted in medium. Six wells per condition were used. Four images of each well were collected at 1 h intervals for 48–72 h. Two biological replicates were performed. Images were acquired using an Incucyte device (Sartorius/Essen biosciences). Cell confluence was calculated using the Incucyte software on the phase contrast images. The results are expressed as percent confluence per well normalised to the value with no compounds added.

[4] = molecular target: hERG (Homo sapiens, UniProt Q12809); experiment: Whole-cell patch-clamp, hERG inhibition; type: cell-based; set-up: expressed in transfected cells; conditions: dose–response fit
Chain of hERG (Q12809 whole entry): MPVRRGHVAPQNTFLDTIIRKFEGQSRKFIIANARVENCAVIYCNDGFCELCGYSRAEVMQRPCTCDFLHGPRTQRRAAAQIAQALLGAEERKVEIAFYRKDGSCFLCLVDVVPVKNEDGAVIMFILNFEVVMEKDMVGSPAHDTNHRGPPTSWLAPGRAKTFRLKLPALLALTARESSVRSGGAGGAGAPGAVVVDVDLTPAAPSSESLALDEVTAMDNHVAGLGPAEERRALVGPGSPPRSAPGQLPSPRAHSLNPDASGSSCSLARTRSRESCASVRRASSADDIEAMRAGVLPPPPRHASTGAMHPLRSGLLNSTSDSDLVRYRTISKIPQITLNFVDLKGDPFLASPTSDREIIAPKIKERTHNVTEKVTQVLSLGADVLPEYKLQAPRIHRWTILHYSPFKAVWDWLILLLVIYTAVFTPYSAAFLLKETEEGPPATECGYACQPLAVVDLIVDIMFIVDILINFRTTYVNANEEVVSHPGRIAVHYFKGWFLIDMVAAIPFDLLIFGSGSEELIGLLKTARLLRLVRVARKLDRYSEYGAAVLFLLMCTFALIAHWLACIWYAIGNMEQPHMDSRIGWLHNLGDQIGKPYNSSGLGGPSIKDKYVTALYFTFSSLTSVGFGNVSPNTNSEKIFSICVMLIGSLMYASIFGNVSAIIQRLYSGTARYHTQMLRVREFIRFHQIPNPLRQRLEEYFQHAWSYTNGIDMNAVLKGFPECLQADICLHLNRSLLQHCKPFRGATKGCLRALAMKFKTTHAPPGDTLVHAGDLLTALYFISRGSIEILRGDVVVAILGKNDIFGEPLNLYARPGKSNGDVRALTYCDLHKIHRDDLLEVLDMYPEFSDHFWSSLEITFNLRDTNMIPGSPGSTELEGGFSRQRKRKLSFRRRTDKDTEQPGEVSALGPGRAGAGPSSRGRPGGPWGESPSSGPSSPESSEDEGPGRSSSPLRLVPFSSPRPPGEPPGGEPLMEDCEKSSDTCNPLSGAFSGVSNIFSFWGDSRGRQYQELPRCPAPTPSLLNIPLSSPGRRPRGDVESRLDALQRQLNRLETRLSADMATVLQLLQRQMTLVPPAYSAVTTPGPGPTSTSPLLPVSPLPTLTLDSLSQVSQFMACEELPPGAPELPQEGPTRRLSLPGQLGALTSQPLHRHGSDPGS

Row | Structure (SMILES) | inhibition at 10 µM ([1]; HEK293, 10 μM, HEK-293 cells, patch-clamp, mean ± SEM) | IC50 [1] | IC50 [2] | reduction of proliferation of Panc-1 cells [3] | inhibition of growth of Panc-1 cells ([3]; concentrations higher than 25 µM) | IC50 [4] | inhibition at 1 µM ([1]; HEK293, 1 μM, HEK-293 cells, patch-clamp, mean ± SEM)
1 | CCN(CC)CCOc1ccc(Nc2ccc(C(F)(F)F)cc2[N+](=O)[O-])cc1 [Compound 17a, N-(4-(2-(Diethylamino)ethoxy)phenyl)-2-nitro-4-(trifluoromethyl)aniline] | 86.2 ± 6.8% | 0.568 µM | 18.5 ± 1.5 µM | approximately half | approximately 50% | 0.232 µM | –
2 | CN(C)CCOc1c(Br)cc(Nc2ccc(C(F)(F)F)cc2[N+](=O)[O-])cc1Br [Compound 18b, 3,5-Dibromo-4-(2-(dimethylamino)ethoxy)-N-(2-nitro-4-(trifluoromethyl)phenyl)aniline] | – | 0.216 µM | 11.9 ± 1 µM | approximately half | – | 0.0049 µM | 73.5 ± 0.5%
